{"source": "paper PMC5438973", "about": "(Frontiers in Psychiatry, 2017)", "key": {"Male, Wistar rats [1]": {"test_system": "Male, Wistar rats", "test": "Isoproterenol-induced drinking", "type": "in vivo, rat", "settings": "5.6 mg/kg", "method": "Male, Wistar rats (different from those rats used in the schedule-induced polydipsia studies) were used. They were 331 ± 11 g at the initiation of this study. Compound 1 (5.6 mg/kg, s.c.) was evaluated for its ability to reduce drinking. (±)-isoproterenol (30 μg/kg, s.c.) was given to induce drinking (n = 5–20 rat/group). Ten minutes after vehicle or (±)-isoproterenol injection, rats were given either vehicle or Compound 1 and a 60 min session began in which the rats in individual housing cages were given access to water 20 min after the second injection. The weight of the water bottle before and after the 60 min period was measured to the nearest 0.1 g. After the experiment, the animals were returned to their living cages with continuous access to food and water."}, "h5-HT1B": {"molecular_target": "T1, h5-HT1B (Homo sapiens, UniProt P28222)", "T1 construct": "expressed in transfected cells", "T1 sequence (P28222 whole entry)": "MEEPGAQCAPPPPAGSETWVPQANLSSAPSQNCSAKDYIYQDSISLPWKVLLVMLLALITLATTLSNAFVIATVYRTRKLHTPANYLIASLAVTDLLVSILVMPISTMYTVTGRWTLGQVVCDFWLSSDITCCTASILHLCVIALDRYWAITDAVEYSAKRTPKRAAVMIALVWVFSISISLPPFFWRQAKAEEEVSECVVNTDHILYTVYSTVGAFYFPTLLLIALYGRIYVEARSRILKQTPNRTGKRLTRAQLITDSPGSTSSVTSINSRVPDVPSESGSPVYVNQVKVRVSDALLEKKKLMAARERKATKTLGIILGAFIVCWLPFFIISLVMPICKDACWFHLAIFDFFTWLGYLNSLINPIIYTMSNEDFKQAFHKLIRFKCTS", "test": "Radioligand binding, human cloned h5-HT1B", "settings": "agonist radioligand, read-out: Affinity, Mean", "method": "(§1) Binding affinities at the serotonin receptors were determined by standard radioligand-binding methods using human cloned receptors as reported in the literature ([14], [15])."}, "h5-HT1D": {"molecular_target": "T2, h5-HT1D (Homo sapiens, UniProt P28221)", "T2 construct": "expressed in transfected cells", "T2 sequence (P28221 whole entry)": "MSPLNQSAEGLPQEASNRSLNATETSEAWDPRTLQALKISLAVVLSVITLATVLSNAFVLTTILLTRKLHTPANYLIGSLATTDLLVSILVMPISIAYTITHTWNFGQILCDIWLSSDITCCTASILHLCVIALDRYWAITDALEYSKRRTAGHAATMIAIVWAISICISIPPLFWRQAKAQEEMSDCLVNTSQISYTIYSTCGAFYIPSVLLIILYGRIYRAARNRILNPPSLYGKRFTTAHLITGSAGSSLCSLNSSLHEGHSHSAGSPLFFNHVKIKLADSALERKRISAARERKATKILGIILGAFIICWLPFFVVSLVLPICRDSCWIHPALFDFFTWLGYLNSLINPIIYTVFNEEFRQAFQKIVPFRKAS", "test": "Radioligand binding, human cloned h5-HT1D", "settings": "agonist radioligand, read-out: Affinity, Mean", "method": "as §1"}, "Male, Wistar rats [2]": {"test_system": "Male, Wistar rats", "test": "Schedule-induced polydipsia", "type": "in vivo, rat", "settings": "for Decrease of excessive water consumption: sc", "from_the_text": "Rats were used in these experiments as they have been utilized for such studies in the past with great success in generating significant polydipsia ([16]). Male, Wistar rats were singly housed, and maintained at approximately 85% of their free-feeding weights with free access to water. Twelve adult male, Wistar rats (Harlan Industries, Indianapolis, IN, USA) were used. They were allowed to acclimate to our vivarium for at least 3 days prior to testing. They were 2 months old at the start of the experiments that lasted approximately 6–8 months and were without explicit experimental experience prior to this study. The rats were singly housed, and maintained at approximately 86–91% of their free-feeding weights with post session supplemental feeding of Lab Diet #5001 for rodents (PMI Nutrition International Inc., St. Louis, MO, USA). Body weights were corrected for the normal growth curve of Wistar rats such that actual body weight of each rat increased over the experimental time frame. Water was available continuously in the individual home cages. Rats were inspected daily 7 days/week by experimenters and veterinary staff.\nThe experiments were conducted using operant behavior test chambers ENV-007 (Med Associates Inc., Georgia, VT, USA), 30.5 cm × 24.1 cm × 29.2 cm. The test chambers were contained within light and sound attenuating shells. A food trough was mounted 2 cm off the grid floor on the centerline. Two response levers were centered 8 cm off the centerline and 7 cm off the grid floor. Three lights were located above each response lever at 15 cm off the grid floor. All events were controlled and lever-press data were recorded by a Compaq computer running MED-PC Version IV (Med Associates Inc., Georgia, VT, USA). The water bottle located within each chamber was weighed before and after experimental sessions.\nExperimental sessions lasted 90 min. Test compounds or drug vehicle were administered on Tuesdays and Fridays, given the stability of performance (within 15% variation of the individual animal). Non-injection, control performances were on Thursdays. […] Dose-effect curves and drug interaction data were created by repeated testing in groups of five to eight rats. Test compounds were administered as described in figure legends. The effects of the compound are expressed as a percent of control for each individual animal. Results were analyzed by ANOVA followed by Dunnett’s multiple comparison (p < 0.05).\nThus, in keeping with the guidelines of animal care and use followed here, we utilized the minimum number of animals required for signal detection."}, "h5-HT4": {"molecular_target": "T3, h5-HT4 (Homo sapiens, UniProt Q13639)", "T3 construct": "expressed in transfected cells", "T3 sequence (Q13639 whole entry)": "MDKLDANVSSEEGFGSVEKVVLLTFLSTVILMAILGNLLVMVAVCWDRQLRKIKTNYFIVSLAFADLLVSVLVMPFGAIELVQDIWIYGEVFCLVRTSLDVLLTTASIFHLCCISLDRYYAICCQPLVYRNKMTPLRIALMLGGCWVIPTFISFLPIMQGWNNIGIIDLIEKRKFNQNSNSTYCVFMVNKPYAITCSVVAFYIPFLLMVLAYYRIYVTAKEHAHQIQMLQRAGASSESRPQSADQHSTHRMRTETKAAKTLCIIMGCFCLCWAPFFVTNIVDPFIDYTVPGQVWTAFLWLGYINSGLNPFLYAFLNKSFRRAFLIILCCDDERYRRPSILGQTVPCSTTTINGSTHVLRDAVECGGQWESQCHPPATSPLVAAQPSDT", "test": "Radioligand binding, human cloned h5-HT4", "settings": "agonist radioligand, n = 2, read-out: Affinity, Mean", "method": "as §1"}, "h5-HT6": {"molecular_target": "T4, h5-HT6 (Homo sapiens, UniProt P50406)", "T4 construct": "expressed in transfected cells", "T4 sequence (P50406 whole entry)": "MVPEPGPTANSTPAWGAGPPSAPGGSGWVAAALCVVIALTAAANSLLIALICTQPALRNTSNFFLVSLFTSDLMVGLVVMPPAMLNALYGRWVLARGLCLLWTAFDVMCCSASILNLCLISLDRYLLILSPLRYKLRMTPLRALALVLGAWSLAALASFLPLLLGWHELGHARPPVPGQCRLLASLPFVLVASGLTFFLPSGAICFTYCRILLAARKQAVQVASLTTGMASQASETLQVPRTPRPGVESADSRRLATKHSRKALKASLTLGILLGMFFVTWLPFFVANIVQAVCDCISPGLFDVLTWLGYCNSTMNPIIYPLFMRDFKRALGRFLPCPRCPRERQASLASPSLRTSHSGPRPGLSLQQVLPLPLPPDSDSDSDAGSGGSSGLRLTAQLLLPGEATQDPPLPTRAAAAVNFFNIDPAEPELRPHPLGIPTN", "test": "Radioligand binding, human cloned h5-HT6", "settings": "agonist radioligand, read-out: Affinity, Mean", "method": "as §1"}, "Male, Wistar rats [3]": {"test_system": "Male, Wistar rats", "test": "Deprivation-induced drinking", "type": "in vivo, rat", "settings": "18 h water deprivation, 5.6 mg/kg", "method": "Male, Wistar rats (different from those rats used in the schedule-induced polydipsia studies) were used. They were 320 ± 15 g at the initiation of this study. Water was removed from their home cage for 18 h after which water bottles were presented to each rat in an individual housing cage in a quiet room for 60 min. The weight of the water bottle before and after the 60 min period was measured to the nearest 0.1 g. Six to eight rats were studied per dose. It is noted that this deprivation period is considered stressful. After the experiment, the animals were returned to their living cages with continuous access to food and water."}, "h5-HT2A [4]": {"molecular_target": "T5, h5-HT2A (Homo sapiens, UniProt P28223)", "T5 construct": "expressed in transfected cells; host or cells: AV12 cells", "T5 sequence (P28223 whole entry)": "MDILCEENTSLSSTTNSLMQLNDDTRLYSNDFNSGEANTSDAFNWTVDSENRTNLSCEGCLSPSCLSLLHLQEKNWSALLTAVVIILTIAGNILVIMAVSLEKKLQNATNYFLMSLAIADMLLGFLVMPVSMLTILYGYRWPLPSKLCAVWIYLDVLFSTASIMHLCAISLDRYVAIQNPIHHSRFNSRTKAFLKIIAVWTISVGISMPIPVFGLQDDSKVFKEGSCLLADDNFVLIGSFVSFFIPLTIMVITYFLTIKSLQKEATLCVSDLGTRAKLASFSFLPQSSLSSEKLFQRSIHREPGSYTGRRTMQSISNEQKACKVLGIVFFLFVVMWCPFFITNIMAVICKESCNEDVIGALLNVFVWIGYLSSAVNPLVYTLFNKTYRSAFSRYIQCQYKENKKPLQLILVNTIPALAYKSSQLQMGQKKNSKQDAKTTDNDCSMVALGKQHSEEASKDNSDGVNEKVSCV", "test": "Radioligand binding, human cloned h5-HT2A", "method": "as §1"}, "h5-HT2C": {"molecular_target": "T6, h5-HT2C (Homo sapiens, UniProt P28335)", "T6 construct": "expressed in transfected cells; host or cells: AV12 cells", "T6 sequence (P28335 33-458)": "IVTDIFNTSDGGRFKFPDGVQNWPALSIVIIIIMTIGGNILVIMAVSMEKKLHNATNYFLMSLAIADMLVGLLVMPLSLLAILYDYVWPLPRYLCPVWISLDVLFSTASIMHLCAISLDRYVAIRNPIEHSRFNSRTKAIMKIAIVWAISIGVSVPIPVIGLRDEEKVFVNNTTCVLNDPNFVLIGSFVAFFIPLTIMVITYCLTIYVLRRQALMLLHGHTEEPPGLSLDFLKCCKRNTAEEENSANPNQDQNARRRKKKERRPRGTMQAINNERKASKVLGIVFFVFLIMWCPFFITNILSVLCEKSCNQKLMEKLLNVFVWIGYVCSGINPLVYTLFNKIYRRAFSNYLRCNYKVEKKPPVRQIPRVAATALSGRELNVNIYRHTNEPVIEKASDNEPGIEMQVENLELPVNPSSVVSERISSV", "test": "GTP-γ-[35S] functional assay (SPA), AV12 cells", "type": "biochemical", "from_the_text": "(§2) 5-HT2 receptors are functionally coupled to specific G-proteins. Agonist activation of 5-HT2 G-protein coupled receptors results in the release of GDP from alpha-subunit (G alpha q or G alpha i) of the G-protein and the subsequent binding of GTP. The binding of the stable analog GTP-g-[^35S] is an indicator of receptor activation. Human cloned 5-HT2A, −2B, and −2C receptors were expressed in AV12 cells. GTP-g-[^35S] nucleotide exchange scintillation proximity assay (SPA) was used to measure binding as previously described ([14])."}, "h5-HT2B": {"molecular_target": "T7, h5-HT2B (Homo sapiens, UniProt P41595)", "T7 construct": "expressed in transfected cells; host or cells: AV12 cells", "T7 sequence (P41595 whole entry)": "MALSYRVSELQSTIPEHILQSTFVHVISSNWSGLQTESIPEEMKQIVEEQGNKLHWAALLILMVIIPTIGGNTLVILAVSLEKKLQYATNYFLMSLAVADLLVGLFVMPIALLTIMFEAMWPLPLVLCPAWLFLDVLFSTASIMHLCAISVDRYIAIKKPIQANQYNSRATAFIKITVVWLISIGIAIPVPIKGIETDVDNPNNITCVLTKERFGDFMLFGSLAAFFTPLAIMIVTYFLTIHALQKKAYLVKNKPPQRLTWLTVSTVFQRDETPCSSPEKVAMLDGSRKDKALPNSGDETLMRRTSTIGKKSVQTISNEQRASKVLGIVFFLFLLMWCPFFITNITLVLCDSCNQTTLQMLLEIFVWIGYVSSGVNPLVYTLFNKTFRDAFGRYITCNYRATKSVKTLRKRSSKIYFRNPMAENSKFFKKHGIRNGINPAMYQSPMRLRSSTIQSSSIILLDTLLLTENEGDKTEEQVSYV", "test": "GTP-γ-[35S] functional assay (SPA), AV12 cells", "type": "biochemical", "from_the_text": "as §2"}, "h5-HT2A [5]": {"molecular_target": "T5, h5-HT2A", "test": "GTP-γ-[35S] functional assay (SPA), AV12 cells", "type": "biochemical", "from_the_text": "as §2"}, "h5-HT1F": {"molecular_target": "T8, h5-HT1F (Homo sapiens, UniProt P30939)", "T8 construct": "expressed in transfected cells", "T8 sequence (P30939 whole entry)": "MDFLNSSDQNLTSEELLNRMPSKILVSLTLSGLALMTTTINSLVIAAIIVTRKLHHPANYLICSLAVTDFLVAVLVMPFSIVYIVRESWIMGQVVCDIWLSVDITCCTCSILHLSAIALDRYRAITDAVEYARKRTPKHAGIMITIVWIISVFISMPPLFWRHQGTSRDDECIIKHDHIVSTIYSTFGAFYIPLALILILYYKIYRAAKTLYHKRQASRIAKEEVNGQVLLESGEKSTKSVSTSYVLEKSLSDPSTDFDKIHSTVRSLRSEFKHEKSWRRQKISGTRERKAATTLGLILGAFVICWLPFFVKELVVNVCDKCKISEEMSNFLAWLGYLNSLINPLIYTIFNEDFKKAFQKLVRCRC", "test": "Radioligand binding, human cloned h5-HT1F", "settings": "agonist radioligand, read-out: Affinity, Mean", "method": "as §1"}, "[6]": {"settings": "10 mg/kg, 5 days of consecutive dosing"}, "[7]": {"settings": "10 mg/kg, five consecutive days"}, "[8]": {"settings": "GTPgs functional assay, human recombinant cell line"}}, "data": [{"molecule": "C[C@H]1CN(c2ccc(C(F)(F)F)c3ccoc23)CCN1", "note": "[CPD 1, (3S)-3-methyl-1-[4-(trifluoromethyl)-7-benzofuranyl]-piperazine]", "values": [{"measurement": "Reduction of isoproterenol-induced drinking", "setting": "Male, Wistar rats [1]; s.c.", "result": 77, "unit": "%"}, {"measurement": "Effect on normal drinking", "setting": "Male, Wistar rats [1]; without isoproterenol", "result": "did not significantly affect"}, {"measurement": "Ki", "setting": "h5-HT1B", "result": 1110, "unit": "nM"}, {"measurement": "Effect on marble-burying compared to vehicle over five consecutive days", "setting": "Male, NIH Swiss mice; [6]", "result": "significantly decreased"}, {"measurement": "Tolerance to suppressant effect on marble-burying with repeated dosing", "setting": "Male, NIH Swiss mice; [6]", "result": "did not produce tolerance"}, {"measurement": "Marble-burying, minimal effective dose", "setting": "Male, NIH Swiss mice; 12/dose group", "result": 10, "unit": "milligrams per kilogram"}, {"measurement": "Ki", "setting": "h5-HT1D", "result": 296, "unit": "nM"}, {"measurement": "Attenuation (tolerance) of the effect over 5 days", "setting": "Male, Wistar rats [2]; [7]", "result": "not a significant attenuation"}, {"measurement": "Effect on excessive water consumption over 5 days of dosing", "setting": "Male, Wistar rats [2]; [7]", "result": "significantly decreased"}, {"measurement": "Decrease of excessive water consumption", "setting": "Male, Wistar rats [2]; CPD 1 5.6 mg/kg sc with MDL100907 0.1 mg/kg, 30 min prior", "result": 65, "unit": "%"}, {"measurement": "Decrease of excessive water consumption", "setting": "Male, Wistar rats [2]; CPD 1 5.6 mg/kg, 20 min prior", "result": 64, "unit": "%"}, {"measurement": "Dose at which statistically significant reduction of excessive drinking was detected", "setting": "Male, Wistar rats [2]; Dunnett p < 0.05", "result": "≥ 3", "unit": "mg/kg"}, {"measurement": "Effect on excessive drinking / amount of water consumed", "setting": "Male, Wistar rats [2]; given alone, acute dosing", "result": "dose-dependently suppressed"}, {"measurement": "Effect on number of responses emitted (lever pressing for food)", "setting": "Male, Wistar rats [2]; given alone, acute dosing", "result": "without affecting response output"}, {"measurement": "Ki", "setting": "h5-HT4", "result": 977, "unit": "nM"}, {"measurement": "Ki", "setting": "h5-HT6", "result": 212, "unit": "nM"}, {"measurement": "Reduction of deprivation-induced drinking", "setting": "Male, Wistar rats [3]", "result": 50, "unit": "%"}, {"measurement": "Ki", "setting": "h5-HT2A [4]; agonist radioligand, h5-HT2A, read-out: Affinity, Mean", "result": 47.2, "unit": "nM"}, {"measurement": "selectivity for h5-HT2C over h5-HT2A receptors", "setting": "h5-HT2A [4]; binding affinities", "result": 22, "unit": "fold"}, {"measurement": "Functional activity (kind of agonism)", "setting": "h5-HT2C; 5-HT2C", "result": "full agonist"}, {"measurement": "EC50", "setting": "h5-HT2C; [8]", "result": "8.1 ± 0.5", "unit": "nM"}, {"measurement": "Emax", "setting": "h5-HT2C; [8]", "result": "110 ± 1", "unit": "%"}, {"measurement": "Functional activity (kind of agonism)", "setting": "h5-HT2B; 5-HT2B", "result": "partial agonist"}, {"measurement": "EC50", "setting": "h5-HT2B; [8]", "result": "97 ± 23", "unit": "nM"}, {"measurement": "Emax", "setting": "h5-HT2B; [8]", "result": 51, "unit": "%"}, {"measurement": "Functional activity (kind of agonism)", "setting": "h5-HT2A [5]; 5-HT2A", "result": "partial agonist"}, {"measurement": "EC50", "setting": "h5-HT2A [5]; [8]", "result": "269 ± 19", "unit": "nM"}, {"measurement": "Emax", "setting": "h5-HT2A [5]; [8]", "result": "53 ± 2", "unit": "%"}, {"measurement": "Ki", "setting": "h5-HT1F", "result": 540, "unit": "nM"}]}]}
